Reference: paper PMC12406255, “Engineering Peptide Modulators for T‑Cell Migration by Structural Scaffold Matching” (Journal of Medicinal Chemistry, 2025)
Positions of bridges follow the written chain, without caps; N, C: chain ends. Non-standard residues stand in square brackets, D forms with d. Residues, ends and D or L forms follow the SMILES beside them. Nle = CCCC[C@H](N)C(=O)O

Key:
Serum stability assay = type: in vitro ADME; conditions: human serum of healthy donors, lipids removed by centrifugation, 37 °C, peptide 30-60 μM from 10-fold stock in PBS, followed over 48 h, urea/TFA quench, analytical RP-HPLC peak area vs time 0, one-phase decay fit; mean ± SD, n = 2 (pepitem n = 5); read-out: Serum t 1/2 (converted)
Protocol: Stability of peptides in human serum was measured similarly to that previously described. In short, fresh blood from healthy donors was collected in serum collection tubes (Clot Activator Tube, Becton Dickinson, Plymouth, United Kingdom, […]) and incubated at 4 °C for 2 h to allow blood clotting. The serum was separated by centrifugation at 1000 × g for 10 min. To remove lipids from the serum, an additional centrifugation step was performed at 15,000 × g for 15 min at 4 °C, after which the serum was used for the stability assays. For this, the serum was prewarmed for 10 min at 37 °C before the addition of the test compounds. Peptides were prepared at a 10-fold concentration in PBS and diluted to a final concentration between 60 and 30 μM with the serum. The serum-peptide reaction mix was incubated at 37 °C, and 40 μL aliquots were taken at the indicated time points. To stop the reaction, samples were mixed with 40 μL of 6 M urea for 10 min on ice, followed by precipitation of serum proteins by the addition of 40 μL of 20% TFA and incubation for at least 10 min on ice. The precipitate was pelleted at 15,000 × g for 15 min, and 90 μL of the supernatant was freeze-dried. The dry material was resuspended in HPLC solvent A (0.1% TFA in ddH2O). Peptide quantification was performed using analytical HPLC. The remaining peptide relative to the starting point (time point 0) was calculated by peak integration to determine the area under the peak at the designated time points and further calculated in comparison to time point 0 min, which was set as 100%. To calculate the half-life of the peptides in human serum, data points were fitted with a one-phase decay equation.

[1] = test system: CD3+ cells of MS patients; assay: Transwell migration assay with PBMC of MS patients, CD3+ cells; type: cell-based, human; conditions: PBMC of treatment-naive MS patients; p = 0.0008; repeated measures one-way ANOVA, Dunnett
Protocol: (§1) 5 Activity of the novel VhTI-pep 2 and pepitem on patient lymphocytes. PPBMCs were isolated from the blood of MS patients with a very recent disease flare receiving no immunosuppressive or immunomodulatory treatment in the past. The effect of the linear pepitem and VhTI-pep 2 was tested for the T-cell populations (A) CD3^+, (B) Th1, (C) CD4^+, (D) memory CD4^+, (E) CD8^+, and (F) memory CD8^+ cells. Data are shown as mean ± SD for 4 independent measurements. Statistical analysis was performed on the level of total counted cells using repeated measures one-way ANOVA with Dunnett’s post hoc test. Statistical significance is indicated as n.s. (not significant), * p < 0.05; ** p < 0.01; *** p < 0.001.
(§2) Human microvascular endothelial cells (HMEC-1 cells, Cytion, Eppelheim, Germany) were cultured in MCDB-131 medium (with 2.2 g/L sodium bicarbonate, without L-glutamine, PAN-Biotech Aidenbach, Germany) supplemented with 10% fetal bovine serum (FBS, Capricorn Scientific, Ebsdorfergrund, Germany), 100 units/ml penicillin-streptomycin (Sigma-Aldrich) 10 ng/mL epidermal growth factor (BioLegend, San Diego, US), 1 μg/mL hydrocortisone (Sigma-Aldrich), and 10 mM L-glutamine (Sigma-Aldrich). For experiments, the cells were used between passage numbers 4–9. […]

[2] = test system: Th1 lymphocytes (CD3+, CD4+, CXCR3+, CCR6-) of MS patients; assay: Transwell migration assay with PBMC of MS patients, Th1 cells; type: cell-based, human; conditions: PBMC of treatment-naive MS patients; mean ± SD, 4 independent measurements; p = 0.048
Protocol: as §1, §2

## CCCC[C@@H]1NC(=O)[C@H](C(C)C)NC(=O)[C@H](CCCCN)NC(=O)[C@@H](NC(=O)[C@H](CCC(N)=O)NC(=O)[C@H](CCC(=O)O)NC(C)=O)CSSC[C@@H](C(=O)N[C@@H](CCC(=O)O)C(=O)N[C@@H](CCCCN)C(N)=O)NC(=O)[C@H](CC(N)=O)NC(=O)[C@H](CC(=O)O)NC(=O)[C@H](CC(C)C)NC(=O)[C@@H]2CSSC[C@H](NC1=O)C(=O)N[C@@H](Cc1ccc(O)cc1)C(=O)N[C@@H](C)C(=O)N[C@@H](CCC(N)=O)C(=O)NCC(=O)N[C@@H](C)C(=O)N[C@@H](CCC(=O)O)C(=O)N[C@@H](CC(C)C)C(=O)N1CCC[C@H]1C(=O)N[C@@H](CCC(=O)O)C(=O)N[C@@H](CC(C)C)C(=O)N[C@@H](CC(C)C)C(=O)N[C@@H](CCCNC(=N)N)C(=O)N[C@@H](CCCNC(=N)N)C(=O)N2 [VhTI-pep 2] (Ac-EQCKV[Nle]CYAQGAELPELLRRCLDNCEK-NH2; disulfide 3-25, 7-21)
Serum stability assay
  half-life: > 48 h
[1]
  migration of CD3+ cells of MS patients (in words): significantly reduced
[2]
  inhibition of migration of Th1 lymphocytes: 34.3 ± 11.4%
